Values after ≈ are worked out from the molar mass of the structure shown. Where only a bound is given, the exact number is not on record here.

Holding throughout (test): MIC determination on agar (method of Steers et al.)
In one assay the test system is E. rhusiopathiae. It is filed as cell-based, Erysipelothrix rhusiopathiae. The protocol: (§1) A brain-heart medium and agar (Difco Laboratories, Detroit, Mich.) were used. Sensitivity tests were performed on Mueller-Hinton agar (Diagnostics Pasteur, Marne LaCoquette, France). All of the incubations were performed at 37° C.
(§2) The disk diffusion test with disks containing 30 μg of vancomycin or 30 μg of teicoplanin (Diagnostics Pasteur) was used for the initial screening. The method of Steers et al. with 10^4 CFU per spot was used to determine the MIC of the antibiotics (Steers E. et al., Antibiot. Chemother. (Basel) 1959, 9: 307-11)

In the next assay the test system is E. gallinarum. The class given is cell-based. How it is done: as §1, §2
The test system of another assay is E. casseliflavus. The class given is cell-based. The protocol: as §1, §2
In the next assay the test system is Pediococcus spp. It is filed as cell-based. How it is done:
as §1, §2

Assay [1] concerns Enterococcus spp. (susceptible). It is filed as cell-based. How it is done: as §1, §2
The subject of another assay is Lactobacillus spp. It is filed as cell-based. How it is done:
as §1, §2

The subject of a further assay is E. faecalis. It is filed as cell-based, Enterococcus faecalis. How it is done:
as §1, §2

For a further assay, the system named is Leuconostoc. sp. The class given is cell-based, Leuconostoc mesenteroides. The protocol:
as §1, §2

Assay [2] relates to isolates of E. faecium and E. faecalis resistant to high concentrations of vancomycin. It is filed as cell-based. To be noted: 15 isolates resistant to high concentrations of vancomycin, including V583-2 and UMH-1. From the text: Bacterial strains: 39 isolates of E. faecium (28 strains) and E. faecalis (11 strains) resistant to low and high concentrations of vancomycin and sensitive to teicoplanin were studied (Table II). Among these strains 24 isolates including E. faecalis V583 (Sahm D. et al., Antimicrob. Agents Chemother. 1989, 33: 1588-91) and E. faecium D366 (Gutmnann L. et al., Antimicrob. Agents Chemother. 1992, 36: 77-80) were resistant to low concentrations of vancomycin on the basis of a disk sensitivity test. […] The control strains were well-characterized strains of entercocci belonging to the phenotypes A and C and hybridizing with the probes VanA and VanC, respectively. In particular there are 6 clinical isolates of E. faecium highly resistant to vancomycin and to teicoplanin, including BM4147. The strains of E. gallinarum including […] belonging to class C were also used as controls. Strains of E. casseliflavus are also used as controls, including the strain ATCC 25788, which are isolates intrinsically resistant to low levels of vancomycin and sensitive to teicoplanin (Leclercq R. et al., Antimicrob. Agents Chemother. 1992, 36: 2005-8).
A brain-heart medium and agar (Difco Laboratories, Detroit, Mich.) were used. Sensitivity tests were performed on Mueller-Hinton agar (Diagnostics Pasteur, Marne LaCoquette, France). All of the incubations were performed at 37° C. […]

The test system of another assay is E. faecium. It is filed as cell-based, Enterococcus faecium. How it is done: as §1, §2
[3] abbreviates: E. gallinarum(3), phenotypic class C, genotypic class C.

On to `CN[C@H](CC(C)C)C(=O)N[C@H]1C(=O)N[C@@H](CC(N)=O)C(=O)N[C@H]2C(=O)N[C@H]3C(=O)N[C@H](C(=O)N[C@H](C(=O)O)c4cc(O)cc(O)c4-c4cc3ccc4O)[C@H](O)c3ccc(c(Cl)c3)Oc3cc2cc(c3O[C@@H]2O[C@H](CO)[C@@H](O)[C@H](O)[C@H]2O[C@H]2C[C@](C)(N)[C@H](O)[C@H](C)O2)Oc2ccc(cc2Cl)[C@H]1O` [Vancomycin, vancomycin], for which the MIC in the assay with E. rhusiopathiae (Erysipelothrix rhusiopathiae) was more than 1 µg/mL; against E. gallinarum (setting [3]), 8 µg/mL (≈ 5.52 µM); in the assay with E. gallinarum (Enterococcus gallinarum, GALLINARUM), 8 µg/mL (≈ 5.52 µM); against E. casseliflavus (Enterococcus casseliflavus, E. casseliflavus (Table I, strain not given)) it was 8 µg/mL (≈ 5.52 µM); in the assay on E. casseliflavus (Enterococcus casseliflavus, E. casseliflavus(2), phenotypic class C, genotype NC) it was 4 to 8 µg/mL (≈ 2.76 to 5.52 µM); in the assay with Pediococcus spp. (Pediococcus) it was more than 1 µg/mL. The minimum inhibitory concentration (MIC) in [1] (Enterococcus) is 0.5 to 2 µg/mL (≈ 0.345 to 1.38 µM); against Lactobacillus spp. (Lactobacillus), more than 1 µg/mL; against E. faecalis (Enterococcus faecalis, ATCC29212, E. faecalis strain ATCC 29212), 2 µg/mL (≈ 1.38 µM); against E. faecalis (Enterococcus faecalis, E. faecalis strain UMH-1), 1020 µg/mL (≈ 707 µM); in the assay with E. faecalis (Enterococcus faecalis, E. faecalis strain V583), 64 µg/mL (≈ 44.2 µM); with E. faecalis (Enterococcus faecalis, E. faecalis strain V583-2) it was 1020 µg/mL (≈ 707 µM). In addition, the MIC against E. faecalis (Enterococcus faecalis, E. faecalis strain V583-C1) is 2 µg/mL (≈ 1.38 µM); against E. faecalis (Enterococcus faecalis, E. faecalis(11), phenotypic class B, genotypic class B), 4 to 1020 µg/mL (≈ 2.76 to 707 µM); in the assay with Leuconostoc. sp. (Leuconostoc mesenteroides) it was more than 1 µg/mL; in assay [2], not below 128 µg/mL; against E. faecium (Enterococcus faecium, ATCC19434, E. faecium strain ATCC 19434), 1 µg/mL (≈ 0.69 µM); against E. faecium (Enterococcus faecium, E. faecium strain BM4147), 1020 µg/mL (≈ 707 µM). Also, the MIC was 32 µg/mL (≈ 22.1 µM) in the assay with E. faecium (Enterococcus faecium, E. faecium strain D366); 2 µg/mL (≈ 1.38 µM) in the assay with E. faecium (Enterococcus faecium, E. faecium strain MT10R); 4 to 256 µg/mL (≈ 2.76 to 177 µM) against E. faecium (Enterococcus faecium, E. faecium(28), phenotypic class B, genotypic class B).

On to teicoplanin, for which the MIC is more than 1.000 µg/mL with E. rhusiopathiae (E. rhusiopathiae(1)); 1 µg/mL against E. gallinarum (E. gallinarum strain BM4174); 1 µg/mL in the assay with E. gallinarum (setting [3]); 1 µg/mL against E. casseliflavus (E. casseliflavus (Table I, strain not given)); 0.5 to 1 µg/mL in the assay on E. casseliflavus (E. casseliflavus(2), phenotypic class C, genotype NC); more than 1.000 µg/mL against Pediococcus spp. (Pediococcus spp.(2)). Further, the MIC is 0.25 µg/mL in assay [1] (Enterococcus spp.(10), phenotypic class Susceptible); more than 1.000 µg/mL in the assay with Lactobacillus spp. (Lactobacillus spp.(8)); 0.5 µg/mL with E. faecalis (E. faecalis strain ATCC 29212); 1.0 µg/mL against E. faecalis (E. faecalis strain UMH-1); 0.5 µg/mL against E. faecalis (E. faecalis strain V583); 1.0 µg/mL in the assay on E. faecalis (E. faecalis strain V583-2). Moreover, the MIC in the assay on E. faecalis (E. faecalis strain V583-C1) was 0.5 µg/mL; in the assay on E. faecalis (E. faecalis(11), phenotypic class B, genotypic class B) it was 0.5 to 1 µg/mL; in the assay on Leuconostoc. sp. (Leuconostoc. sp.(1)), more than 1.000 µg/mL; with E. faecium (E. faecium strain ATCC 19434), 1 µg/mL; against E. faecium (E. faecium strain BM4147), 512 µg/mL; against E. faecium (E. faecium strain D366) it was 0.5 µg/mL. The MIC against E. faecium (E. faecium strain MT10R) is 0.25 µg/mL; against E. faecium (E. faecium(28), phenotypic class B, genotypic class B), 0.5 to 1 µg/mL.

(Values after patent publication US6569622B1, “Nucleic acids encoding a protein conferring an inducible resistance to glycopeptide, particularly in gram-positive bacteria” (Institut Pasteur, priority 1992, dated 2003).)
